For one data set, the system named is HIV-1 (IIIB). As to the kind of experiment: microbe, parasite or virus in culture. The data set is classed as cell-based. The settings on record: Human immunodeficiency virus 1, IIIB, CCRF-CEM; concentration required to inhibit HIV-induced cytopathicity in human CEM cell cultures by 50%. (Cytopathic effects are the visible damage that an infection or toxin causes in cultured cells.)

The next data set has as its system HSV-1 (KOS). As to the kind of experiment: Anti-viral activity: HSV-1-induced cytopathicity in human embryo fibroblast E6SM cell cultures. The data set is classed as cell-based, herpes simplex virus (HSV). Particulars: Human alphaherpesvirus 1, 50%.
A further data set concerns VV. Put plainly: microbe, parasite or virus in culture. The data set is classed as cell-based. The settings on record: Orthopoxvirus vaccinia, E6SM, read-out: EC50 VV (E6SM).
The test system of data set [1] is murine mammary carcinoma cells (FM3A). As to the kind of experiment: Cytostatic activity: inhibition of proliferation of FM3A cells. The data set is classed as cell-based. The settings on record: Mus musculus, read-out: IC50 FM3A/0. How it is done:
(§1) The compounds were tested for anti-tumor activity via the inhibitory effects on the proliferation of murine leukemia cells (L1210/0), murine mammary carcinoma cells (FM3A), human T-lymphocyte cells (Molt4/C8, CEM/0) and human cervix carcinoma cells (HeLa).

Data set [2] relates to human T-lymphocyte cells (CEM/0). Put plainly: Cytostatic activity: inhibition of proliferation of CEM/0 cells. The data set is classed as cell-based. The settings on record: CCRF-CEM, read-out: IC50 CEM/0. As for the experimental part: as §1
The test system of data set [3] is Microsporum gypseum IHEM 3999 - ATCC 14683. As to the kind of experiment: Anti-fungal activity, Bioscreen C growth curve: Microsporum gypseum (mold). The data set is classed as cell-based. Particulars: Nannizzia gypsea, ATCC14683, 120 h; 25 PPM; 25° C., 5 days; negative control = 100; read-out: % of growth at a dose of 25 PPM compared to the negative control, Microsporum gypseum IHEM 3999 - ATCC 14683. How it is done: For the determination of the anti-bacterial and anti-fungal activity the Bioscreen C Analyser Labsystems, Finland, was used. This is an automated reader-incubator. It measures growth continuously by vertical photometry (optical density), processes the data and provides a print out of the results. The area under the growth curve is automatically determined via the Biolink software.
The inoculum size of the mould is standardized to 0.4-5.0×10^4 CFU/ml.
For bacteria, the 100-honey-well plates containing test chemical, Mueller-Hinton broth and inoculum (=sample) are incubated at 35° C. for 16 hours. Also wells without inoculum are incubated (=blanco). Yeasts are incubated 35° C. for 24 hours in RPMI 1640+MOPS buffer at 165 mM. Moulds also in RPMI 1640+MOPS buffer at 165 mM are incubated 25° C. for 5 days. All micro-organisms are screened against a known concentration of the reference antibiotics or antimycotics such as vancomycin, penicillin G, gentamicin or amphotericin B. The growth curve and the area under the growth curve can be determined using the Biolink software; this is illustrated in FIG. 1.
The area of the blanco is subtracted from the area of the sample, this number (delta) gives us an indication of the biological activity of the molecules tested and can be expressed as a % of growth at a specific dose compared to a negative control that has a value of 100, illustrated in FIG. 2. Screening of each dose of a specific compound is repeated 5 times. The dose used for all new molecules in all tests is 25 PPM or 25 μg/ml.
In Table 5 the anti-fungal activity is given for the new molecules. The micro-organisms used were Candida albicans (a typical yeast) and Microsporum gypseum (a typical mold).
Also for the determination of the anti-fungal activity the Bioscreen C Analyser Labsystems Oy, Finland was used. It measures growth continuously by vertical photometry (optical density), processes the data and provides a print out of the results. The area under the growth curve is automatically determined via the Biolink software.
The inoculum size of the yeast is standardized to 0.5-2.5×10^3 CFU/ml. The inoculum size of the mould is standardized to 0.4-5.0×10^4 CFU/ml. Yeasts are incubated 35° C. for 24 hours in RPMI 1640+MOPS buffer at 165 mM. Moulds also in RPMI 1640+MOPS buffer at 165 mM are incubated 25° C. for 5 days.
As a control, all micro-organisms are screened against some reference antibiotics with known MIC. Screening of each dose of a specific compound is repeated 5 times.

The next data set deals with HEL cells. As to the kind of experiment: Cytotoxicity: alteration of cell morphology (MCC). The data set is classed as cell-based, human. Particulars: minimum cytotoxic concentration that causes a microscopically detectable alteration of cell morphology.
The nature of data set [4]: Cytotoxicity: inhibition of HEL cell growth (CC50). The data set is classed as cell-based. The settings on record: human; concentration required to reduce cell growth by 50%; HEL cells, three days. How it is done:
The medium was then replaced by MEM containing various concentrations of the test compound. After three days incubation at 37° C., when the cell monolayer was 70% confluent, the cell number was determined with the Coulter counter. The minimum cytotoxic concentration was defined as the concentration required to reduce cell growth by 50%.

A further data set deals with CMV AD-169 strain. As to the kind of experiment: Anti-CMV activity: plaque reduction in HEL cells, AD-169 strain. The format is cell-based, human cytomegalovirus (CMV). The settings on record: for IC50: Human betaherpesvirus 5, AD169, HEL, Table 2, reduce virus plaque formation by 50%, virus input 100 PFU, read-out: IC50 CMV AD-169 Strain.
The next data set has as its system CMV Davis strain. As to the kind of experiment: Anti-CMV activity: plaque reduction in HEL cells, Davis strain. The data set is classed as cell-based, human cytomegalovirus (CMV). Particulars: Human betaherpesvirus 5, HEL; Table 2; reduce virus plaque formation by 50%; virus input 100 PFU; read-out: IC50 CMV David strain.
The test system of data set [5] is L1210/0, FM3A, Molt4/C8, CEM/0 and HeLa cells. Put plainly: Cytostatic studies, conclusion over the panel of cell lines. The format is cell-based, murine and human. The settings on record: conclusion in text on Table 3. As for the experimental part: as §1
Setting [6] is: 50% inhibitory concentration, cell proliferation.

≈ marks a conversion by molar mass, not a printed value. Like-named read-outs stand apart in the source and are kept apart here. Some results are limits rather than exact numbers.

As a reminder, the EC50 is the concentration that produces a half-maximal response. The term CC50 denotes the concentration that lowers cell viability or growth by half. A low value points to greater toxicity to the cells. In the case of `CO[C@@H]1[C@@H](OC)[C@H](c2ccccc2)O[C@@H]2CO[C@@H](c3ccccc3)O[C@@H]12` [KPE00001015], the EC50 with HIV-1 (IIIB) is more than 4 µg/mL; with HSV-1 (KOS) it was more than 80 µg/mL; with VV it was more than 80 µg/mL. Further, the results for the IC50 in data set [1] (setting [6]) and in data set [2] (setting [6]) were more than 200 µg/mL and 81 ± 10 µg/mL (≈ 227 µM), respectively. Besides, the activity at 25 ppm in data set [3] was 66%. For the same compound, the “Cytotoxicity Cell morphology (MCC)” value in the data set with HEL cells amounted to 50 μg/ml. In data set [4], this compound gave a 50% cytotoxic concentration (CC50) at 3 days of more than 50 µg/mL.

The melting point is the temperature of the solid-liquid transition. In turn, `CO[C@@H]1[C@@H](OC)[C@H](Sc2ccccc2)O[C@@H]2COC(=O)CCCC/C=C/CCCCC(=O)O[C@@H]12` [KPE00001016.1] registered a melting point of 60 to 61 °C. In the data set on HIV-1 (IIIB), the EC50 is more than 4 µg/mL. In addition, the EC50 in the data set on HSV-1 (KOS) was more than 3.2 µg/mL. The EC50 in the data set with VV is more than 3.2 µg/mL. For the same compound, the IC50 with CMV AD-169 strain is 10 µg/mL (≈ 20.3 µM). Moreover, the “anti-viral activity against CMV, in words” value in the data set with CMV AD-169 strain (strain not named) is reported as “especially active”. The IC50 in the data set on CMV Davis strain is 10 µg/mL (≈ 20.3 µM). Moreover, the IC50 in [1] (setting [6]) amounted to 108 ± 9 µg/mL (≈ 219 µM). Besides, the IC50 in data set [2] (setting [6]) stood at 23 ± 0.5 µg/mL (≈ 46.7 µM). The activity at 25 ppm in [3] is 74%. In addition, the “cytostatic activity, in words” value in [5] is “good cytostatic activity”.

For the compound `CO[C@@H]1[C@@H](OC)[C@H](Sc2ccccc2)O[C@@H]2COC(=O)CCCC/C=C\CCCCC(=O)O[C@@H]12` [KPE00001016.2], the melting point is 87 to 88 °C. Besides, the 50% effective concentration (EC50) with HIV-1 (IIIB) was more than 100 µg/mL. The concentration for a half-maximal effect (EC50) with HSV-1 (KOS) is more than 3.2 µg/mL. The concentration for a half-maximal effect (EC50) in the data set on VV was more than 3.2 µg/mL. Moreover, in the data set on CMV AD-169 strain, the IC50 was more than 20 µg/mL. The IC50 in the data set with CMV Davis strain is more than 20 µg/mL. In addition, the IC50 in data set [1] (setting [6]) is more than 200 µg/mL. In data set [2] (setting [6]), the IC50 was determined as 36 ± 16 µg/mL (≈ 73.1 µM). Moreover, in [3], the activity at 25 ppm was 58%.

On to `CO[C@@H]1[C@@H](OC)[C@H](Cc2ccccc2)O[C@@H]2CO[C@@H](c3ccccc3)O[C@@H]12` [KPE00001019], for which the half-maximal effective concentration (EC50) with HIV-1 (IIIB) is more than 100 µg/mL; with HSV-1 (KOS) it was more than 80 µg/mL; with VV, more than 80 µg/mL. Also, the results for the IC50 in data set [1] (setting [6]) and in data set [2] (setting [6]) were more than 200 µg/mL and not below 200 µg/mL, respectively. In addition, the activity at 25 ppm in data set [3] amounted to 66%. The “Cytotoxicity Cell morphology (MCC)” value in the data set on HEL cells is 20 μg/ml. The CC50 at 3 days in [4] was more than 50 µg/mL.

As to `CO[C@@H]1[C@@H](OC)[C@H](Cc2ccccc2)O[C@@H]2COC(=O)CC/C=C/CCC(=O)O[C@@H]12` [KPE00001022], the EC50 was more than 20 µg/mL in the data set with HIV-1 (IIIB), more than 80 µg/mL in the data set with HSV-1 (KOS) and 80 µg/mL (≈ 191 µM) in the data set on VV. For the same compound, the IC50 in the data set on CMV AD-169 strain is more than 5 µg/mL; in [1] it was 82 ± 14 µg/mL (≈ 196 µM); in data set [2], 48 ± 15 µg/mL (≈ 115 µM). The activity at 25 ppm in data set [3] is 67%. Moreover, the “cytostatic activity, in words” value in [5] was “good cytostatic activity”.

On to `CO[C@@H]1[C@@H](OC)[C@H](Cc2ccccc2)O[C@@H]2COC(=O)CCCCCCCCC=CCCCCCCCCC(=O)O[C@@H]12` [KPE00001031E], for which the melting point lay in the range of 45 to 46 °C. In the data set on HIV-1 (IIIB), this compound registered an EC50 of more than 100 µg/mL. This compound displayed an EC50 in the data set with HSV-1 (KOS) not below 400 µg/mL. For the same compound, the concentration for a half-maximal effect (EC50) with VV was more than 400 µg/mL. For the same compound, the IC50 with CMV AD-169 strain was more than 5 µg/mL. The IC50 in [1] (setting [6]) was not below 200 µg/mL. Moreover, the IC50 in [2] (setting [6]) is not below 200 µg/mL. For the same compound, the activity at 25 ppm in [3] is 62%.

These data come from patent publication US7534871B2, “Preparation and use of carbohydrate-based bicyclic ring structures with antimicrobial and cytostatic activity” (Kemin Pharma B.V.B.A., priority 2004, dated 2009).
